The source of these data is publication PMC3763380, “Cellular-Level Versus Receptor-Level Response Threshold Hierarchies in T-Cell Activation” (Frontiers in Immunology, 2013).

In test [1] the test system is CTL clone ILA1. Briefly: Bioassay: ILA1 CTL response to peptide-pulsed C1R-A2null targets (CD8-null HLA-A2), flow cytometry. The format is cell-based. The following applies: read-outs CD107a, MIP-1β, TNF-α, IL-2, IFN-γ. The protocol: Stable C1R transfectants expressing wild-type HLA-A2 (C1R-A2) or CD8-null HLA-A2 (C1R-A2null), the α3 domain of which contains the double mutation D227K/T228A that abrogates CD8 binding ([30]), were pulsed with peptide as indicated for 1 h at 37°C. For each condition, assays were set up simultaneously in 96-well plates using 4.5 × 10^5 C1R cells per well, thereby ensuring that all cellular parameters were consistent across ligand stimulations. Subsequently, brefeldin A (10 μg/ml; BD Biosciences) and monensin (0.7 μl/ml; BD Biosciences) were added together with a pre-titred concentration of the directly conjugated monoclonal antibody (mAb) αCD107a-FITC [BD Pharmingen; Ref. ([31])]. […]
Stained cell samples were acquired and recorded using a customized FACS Aria II flow cytometer (BD Biosciences) equipped for the simultaneous detection of 18 fluorescent parameters. […] The following gating tree was applied: (i) single cells were identified based on their light scatter properties; (ii) Boolean gating was carried out to exclude artifacts and fluorochrome aggregates; (iii) viable CD3^+CD19^− events were selected; (iv) outliers were eliminated in a side-scatter versus CD3 display; and (v) gates were set on cells positive for individual functional read-outs. […]

Test [2] addresses ILA1 TCR. The following applies: SPR, ILA1 TCR/pMHCI; not first reported here (footnote Table 1); ligands largely characterized previously; ref [27], [28]; cited from earlier work. The protocol:
Table 1 Biophysical parameters. | column: On-rate (M^−1s^−1); Off-rate (s^−1); KD (M) || Figure 3 Functional variation at the cell population level in response to six different peptide ligands. The CTL clone ILA1 was stimulated for 6 h with peptide-pulsed C1R-A2 targets as indicated. Five functional read-outs (CD107a, MIP-1β, TNF-α, IL-2, and IFN-γ) were measured via flow cytometry. […] (A) Overview of functional profiles. Pie chart segments represent the fraction of cells expressing the number of functions indicated in the key. (B) Detailed analysis of functional profiles at [peptide] = 10^−6 M. Pie charts are extended with arc ...

What is called Kd is the concentration at which binding is half-saturated.

For the sequence “ILAKFLHWL [residues 540–548 (…) of the human telomerase reverse transcriptase protein]”, the “responses at sufficiently high presentation levels” value in test [1] is reported as “strongly attenuated but discernible responses”. Besides, in test [2], the Kd was 32 µM, the Off-rate was 0.13 s⁻¹ and the On-rate was 4,100 M^−1s^−1.
